Our source for the GI50 values is patent publication US10189794B2, “Heteroaryl compounds and uses thereof” (Celgene CAR LLC, priority 2013, dated 2019).

The subject of one test is MDA-MB-453 cells. Kind of test: Cell proliferation, MDA-MB-453 (CellTiter Glo). The class given is cell-based. To be noted: Homo sapiens; MDA-MB-453; 96 hr; read-out: Cell Proliferation GI50 (nM) MDA. How it is done: For both MDA-MB-453 and Huh7 cells the starting density was 5000 cells per well. The cells were allowed to settle down for 4 hr and were then treated with 5, 1.25, 0.31, 0.078, 0.020 or 0.005 μM of test compound for: 96 hr for MDA-MB-453 and 120 hr for Huh7 cells. Cell viability was determined by CellTiter Glo (Promega, Madison, Wis.) and the results were converted to cell numbers using a standard curve. The growth inhibition (GI50) values were determined by Graph Pad Prism.
The results of these experiments show the ability of compounds to inhibit cell growth in FGFR dependant cell lines and are depicted in Table 8, in the columns titled “Cell Proliferation GI50 (nM)”. MDA-MB-453 cell results fall under the heading “MDA” and Huh7 cell results fall under the heading “Huh.”
In general terms: ATP-based viability assays read luminescence as a measure of living cells.
`C=CC(=O)NC1CCCCC1Nc1ncc2c(n1)N(Cc1cccc(NC(=O)CC)c1)C(=O)N(c1c(Cl)c(OC)cc(OC)c1Cl)C2` (racemic) [I-8]: the GI50 is below 100 nM.

For `C=CC(=O)NC1CCCCC1Nc1ncc2c(n1)N(C)C(=O)N(c1c(Cl)c(OC)cc(OC)c1Cl)C2` (racemic) [I-19], the GI50 lay within 101 to 500 nM.

In the case of `C=CC(=O)Nc1ccccc1Nc1ncc2c(n1)N(C1CC1)C(=O)N(c1c(Cl)c(OC)cc(OC)c1Cl)C2` [I-23], the GI50 was below 100 nM.

With `C=CC(=O)Nc1ccccc1Nc1ncc2c(n1)N(Cc1ccc(Cl)c(OC)c1)C(=O)N(c1c(Cl)c(OC)cc(OC)c1Cl)C2` [I-24], the GI50 was below 100 nM.

On to `C=CC(=O)Nc1cc(N2CCCCC2)ccc1Nc1ncc2c(n1)N(C)C(=O)N(c1cc(OC)cc(OC)c1)C2` [I-31], for which the GI50 lay in the range of 101 to 500 nM.

Regarding `C=CCN1C(=O)N(c2cc(OC)cc(OC)c2)Cc2cnc(Nc3ccccc3NC(=O)C=C)nc21` [I-32], the GI50 lay in the range of 501 to 999 nM.

In the case of `C=CC(=O)Nc1ccccc1Nc1ncc2c(n1)N(C1CC1)C(=O)N(c1cc(OC)cc(OC)c1)C2` [I-34], the GI50 is 501 to 999 nM.

Consider `C=CS(=O)(=O)Nc1ccccc1Nc1ncc2c(n1)N(C)C(=O)N(c1cc(OC)cc(OC)c1)C2` [I-67], for which the GI50 lay within 501 to 999 nM.

For `C=CC(=O)Nc1ccccc1Nc1ncc2c(n1)N(C)C(=O)N(c1cc(OC)cc(OC)c1Cl)C2` [I-75], the GI50 lay within 101 to 500 nM.

On to `C=CC(=O)Nc1cc(-c2cnn(C)c2)ccc1Nc1ncc2c(n1)N(C)C(=O)N(c1cc(OC)cc(OC)c1)C2` [I-77], for which the GI50 lay in the range of 101 to 500 nM.

For the compound `C=CC(=O)Nc1ccc(-c2nccs2)cc1Nc1ncc2c(n1)N(C)C(=O)N(c1cc(OC)cc(OC)c1)C2` [I-78], the GI50 was in the range of 101 to 500 nM.

Consider `C=CC(=O)N[C@H]1CCCC[C@H]1Nc1ncc2c(n1)N(Cc1ccccc1)C(=O)N(c1c(Cl)c(OC)cc(OC)c1Cl)C2` [I-82], for which the GI50 was below 100 nM.

Consider `C=CC(=O)Nc1ccccc1Nc1ncc2c(n1)N(Cc1cscn1)C(=O)N(c1c(Cl)c(OC)cc(OC)c1Cl)C2` [I-86], for which the GI50 was below 100 nM.

On to `C=CC(=O)Nc1ccccc1Nc1ncc2c(n1)N(Cc1cccc(C#N)c1)C(=O)N(c1cc(OC)cc(OC)c1)C2` [I-90], for which the GI50 lay within 101 to 500 nM.

Turning to `C=CC(=O)Nc1ccccc1Nc1ncc2c(n1)N(Cc1nccs1)C(=O)N(c1c(Cl)c(OC)cc(OC)c1Cl)C2` [I-91], the GI50 is below 100 nM.

For `C=CC(=O)N[C@H]1CCCC[C@H]1Nc1ncc2c(n1)N(Cc1nccs1)C(=O)N(c1c(Cl)c(OC)cc(OC)c1Cl)C2` [I-92], the GI50 was 101 to 500 nM.

With `C=CC(=O)Nc1ccccc1Nc1ncc2c(n1)N(C)C(=O)N(c1cc(OC)cc(OC)c1F)C2` [I-108], the GI50 fell in the range of 101 to 500 nM.

Consider `C=CC(=O)Nc1ccccc1Nc1ncc2c(n1)N(CC1CC1)C(=O)N(c1cc(OC)cc(OC)c1F)C2` [I-109], for which the GI50 is below 100 nM.

As for `C=CC(=O)Nc1ccccc1Nc1ncc2c(n1)N(Cc1ccnc(N)c1)C(=O)N(c1c(Cl)c(OC)cc(OC)c1Cl)C2` [I-135], the GI50 was below 100 nM.

`C=CC(=O)Nc1ccccc1Nc1ncc2c(n1)N(Cc1ccn(C)n1)C(=O)N(c1c(Cl)c(OC)cc(OC)c1Cl)C2` [I-136]: the GI50 is below 100 nM.

The test system of a further test is Huh7 cells. The test is described as follows: Cell proliferation, Huh7 (CellTiter Glo). The class given is cell-based. To be noted: Homo sapiens, Huh-7; Huh7; 120 hr; read-out: Cell Proliferation GI50 (nM) HUH. How it is done:
The growth inhibition (GI50) values were determined by Graph Pad Prism.
With `C=CC(=O)NC1CCCCC1Nc1ncc2c(n1)N(Cc1cccc(NC(=O)CC)c1)C(=O)N(c1c(Cl)c(OC)cc(OC)c1Cl)C2` (racemic) [I-8], the GI50 fell in the range of 101 to 500 nM.

For the compound `C=CC(=O)NC1CCCCC1Nc1ncc2c(n1)N(C)C(=O)N(c1c(Cl)c(OC)cc(OC)c1Cl)C2` (racemic) [I-19], the GI50 was 501 to 999 nM.

Turning to `C=CC(=O)NC1CCCCC1Nc1ncc2c(n1)N(CCF)C(=O)N(c1c(Cl)c(OC)cc(OC)c1Cl)C2` (racemic) [I-106], the GI50 was above 1000 nM.

On to `C=CC(=O)NC1CN(C)CC1Nc1ncc2c(n1)N(C)C(=O)N(c1c(Cl)c(OC)cc(OC)c1Cl)C2` (racemic) [I-138], for which the GI50 is above 1000 nM.

Regarding `C=CC(=O)NC1CN(C(C)=O)CC1Nc1ncc2c(n1)N(C)C(=O)N(c1c(Cl)c(OC)cc(OC)c1Cl)C2` (racemic) [I-139], the GI50 lay within 501 to 999 nM.

In the case of `C=CC(=O)NC1CN(C2CCN(C)CC2)CC1Nc1ncc2c(n1)N(C)C(=O)N(c1c(Cl)c(OC)cc(OC)c1Cl)C2` (racemic) [I-154], the GI50 was above 1000 nM.

In the case of `C=CC(=O)Nc1ccccc1Nc1ncc2c(n1)N(CC(O)CO)C(=O)N(c1cc(OC)cc(OC)c1)C2` (stereo not shown) [I-33], the GI50 is above 1000 nM.

With `C=CC(=O)Nc1ccccc1Nc1ncc2c(n1)N(C1CCCN(C(=O)OC(C)(C)C)C1)C(=O)N(c1cc(OC)cc(OC)c1)C2` (stereo not shown) [I-36], the GI50 was above 1000 nM.

As to `C=CC(=O)Nc1cc(C)ccc1Nc1ncc2c(n1)N(C)C(=O)N(c1cc(OC)cc(OC)c1)C2` [I-41], the GI50 was above 1000 nM.

As to `C=CC(=O)Nc1cc(C(F)(F)F)ccc1Nc1ncc2c(n1)N(C)C(=O)N(c1cc(OC)cc(OC)c1)C2` [I-42], the GI50 is above 1000 nM.

Take `C=CC(=O)Nc1ccccc1Nc1ncc2c(n1)N(C1CCCNC1)C(=O)N(c1cc(OC)cc(OC)c1)C2` (stereo not shown) [I-43]: the GI50 lay within 101 to 500 nM.

For the compound `C=CC(=O)Nc1ccc(C(F)(F)F)cc1Nc1ncc2c(n1)N(C)C(=O)N(c1cc(OC)cc(OC)c1)C2` [I-50], the GI50 is above 1000 nM.

`C=CC(=O)Nc1ccccc1Nc1ncc2c(n1)N(CCF)C(=O)N(c1cc(OC)cc(OC)c1)C2` [I-102]: the GI50 is above 1000 nM.

For the compound `C=CC(=O)NC1CCCCC1Nc1ncc2c(n1)N(CC(F)F)C(=O)N(c1c(F)c(OC)cc(OC)c1F)C2` (stereo not shown) [I-115], the GI50 was above 1000 nM.

As for `C=CC(=O)Nc1nn(C)cc1Nc1ncc2c(n1)N(C)C(=O)N(c1c(Cl)c(OC)cc(OC)c1Cl)C2` [I-117], the GI50 was in the range of 101 to 500 nM.

As to `C=CC(=O)Nc1ccccc1Nc1ncc2c(n1)NC(=O)N(c1cc(OC)cc(OC)c1)C2` [I-125], the GI50 was above 1000 nM.

As to `C=CC(=O)Nc1cc(N2CCN(C(=O)CCCC(=O)NCCCOCCOCCOCCCNC(=O)CCCC[C@@H]3SC[C@@H]4NC(=O)N[C@@H]43)CC2)ccc1Nc1ncc2c(n1)N(C)C(=O)N(c1c(Cl)c(OC)cc(OC)c1Cl)C2` [I-127], the GI50 was above 1000 nM.

For `C=CC(=O)NC1CCCCC1Nc1ncc2c(n1)N(Cc1ccn(C)c(=O)c1)C(=O)N(c1c(Cl)c(OC)cc(OC)c1Cl)C2` (stereo not shown) [I-132], the GI50 is above 1000 nM.

Regarding `C=CC(=O)NC1CCCCC1Nc1ncc2c(n1)N(Cc1csc(C)n1)C(=O)N(c1c(Cl)c(OC)cc(OC)c1Cl)C2` (stereo not shown) [I-137], the GI50 was in the range of 501 to 999 nM.

For the compound `C=CC(=O)N[C@H]1COCC[C@H]1Nc1ncc2c(n1)N(C)C(=O)N(c1c(Cl)c(OC)cc(OC)c1Cl)C2` [I-140], the GI50 fell in the range of 501 to 999 nM.

With `C=CC(=O)Nc1cc(-c2nnn(C)n2)ccc1Nc1ncc2c(n1)N(C)C(=O)N(c1cc(OC)cc(OC)c1)C2` [I-146], the GI50 was above 1000 nM.

On to `C=CC(=O)Nc1cc(C(=O)NC2CCN(C)CC2)ccc1Nc1ncc2c(n1)N(C)C(=O)N(c1cc(OC)cc(OC)c1)C2` [I-151], for which the GI50 was above 1000 nM.

As for `C=CC(=O)Nc1cc(-c2nnnn2C)ccc1Nc1ncc2c(n1)N(C)C(=O)N(c1c(Cl)c(OC)cc(OC)c1Cl)C2` [I-153], the GI50 lay within 101 to 500 nM.

On to `C=CC(=O)N[C@@H]1COC[C@@H]1Nc1ncc2c(n1)N(C)C(=O)N(c1c(Cl)c(OC)cc(OC)c1Cl)C2` [I-185], for which the GI50 was above 1000 nM.

For the compound `C=CC(=O)N[C@H]1COC[C@H]1Nc1ncc2c(n1)N(C)C(=O)N(c1c(Cl)c(OC)cc(OC)c1Cl)C2` [I-186], the GI50 was below 100 nM.

As to `C=CC(=O)NC1COCC1Nc1ncc2c(n1)N(C)C(=O)N(c1c(F)c(OC)cc(OC)c1F)C2` (stereo not shown) [I-198], the GI50 is 101 to 500 nM.

For `C=CC(=O)NC1CN(c2ccncn2)CC1Nc1ncc2c(n1)N(C)C(=O)N(c1c(Cl)c(OC)cc(OC)c1Cl)C2` (stereo not shown) [I-201], the GI50 fell in the range of 501 to 999 nM.

In the case of `C=CC(=O)NC1COCC1Nc1ncc2c(n1)N(C)C(=O)N(c1c(F)c(OC)cc(OC)c1Cl)C2` (stereo not shown) [I-206], the GI50 is below 100 nM.

As to `C=CC(=O)NC1COCC1Nc1ncc2c(n1)N(Cc1cscn1)C(=O)N(c1c(Cl)c(OC)cc(OC)c1Cl)C2` (stereo not shown) [I-210], the GI50 was in the range of 101 to 500 nM.

`C=CC(=O)NC1COCC1Nc1ncc2cc(-c3c(Cl)c(OC)cc(OC)c3Cl)c(=O)n(C)c2n1` (stereo not shown) [I-211]: the GI50 is below 100 nM.

For `C=CC(=O)NC1COCC1Nc1ncc2c(n1)N(CC1CC1)C(=O)N(c1c(Cl)c(OC)cc(OC)c1Cl)C2` (stereo not shown) [I-212], the GI50 is below 100 nM.

Turning to `C=CC(=O)NC1COCC1Nc1ncc2c(n1)N(Cc1cnn(C)c1)C(=O)N(c1c(Cl)c(OC)cc(OC)c1Cl)C2` (stereo not shown) [I-213], the GI50 is below 100 nM.

In the case of `C=CC(=O)NC1COCC1Nc1ncc2c(n1)N(Cc1ccn(C)n1)C(=O)N(c1c(Cl)c(OC)cc(OC)c1Cl)C2` (stereo not shown) [I-215], the GI50 was 101 to 500 nM.

For the compound `C=CC(=O)NC1COCC1Nc1ncc2c(n1)N(Cc1cc[nH]n1)C(=O)N(c1c(Cl)c(OC)cc(OC)c1Cl)C2` (stereo not shown) [I-216], the GI50 was in the range of 101 to 500 nM.

As for `C=CC(=O)NC1COCC1Nc1ncc2c(n1)N(CC)C(=O)N(c1c(Cl)c(OC)cc(OC)c1Cl)C2` (stereo not shown) [I-217], the GI50 was below 100 nM.

Regarding `C=CC(=O)N[C@H]1CCCC[C@H]1Nc1ncc2cc(-c3c(Cl)c(OC)cc(OC)c3Cl)c(=O)n(C)c2n1` [I-223], the GI50 fell in the range of 101 to 500 nM.

As to `C=CC(=O)N[C@H]1CCCC[C@H]1Nc1ncc2c(n1)N(C)C(=O)N(c1c(F)c(OC)cc(OC)c1Br)C2` [I-228], the GI50 fell in the range of 101 to 500 nM.

On to `COc1cc(OC)c(Cl)c(N2Cc3cnc(Nc4ccccc4)nc3N(C)C2=O)c1Cl` [I-238], for which the GI50 was below 100 nM.

Turning to `C=CC(=O)N[C@@H]1COC[C@@H]1Nc1ncc2cc(-c3c(Cl)c(OC)cc(OC)c3Cl)c(=O)n(C)c2n1` [I-240], the GI50 was above 1000 nM.

As to `C=CC(=O)N[C@H]1COC[C@H]1Nc1ncc2cc(-c3c(Cl)c(OC)cc(OC)c3Cl)c(=O)n(C)c2n1` [I-241], the GI50 is below 100 nM.

Regarding `C=CC(=O)Nc1cc(OC)ccc1Nc1ncc2cc(-c3c(Cl)c(OC)cc(OC)c3Cl)c(=O)n(C)c2n1` [I-242], the GI50 is below 100 nM.
